Assays:
[1] = Oral bioavailability in overnight fasted Sprague-Dawley rat plasma at 10 mg/kg administered via oral gavage up to 24 hrs by LC-MS/MS analysis; type: ADME, organism-based
[2] = Tmax in overnight fasted Sprague-Dawley rat plasma at 10 mg/kg administered via oral gavage up to 24 hrs by LC-MS/MS analysis; type: ADME, organism-based
[3] = system: MV4-11; assay: Cell cycle arrest in human MV4-11 cells assessed as accumulation at S phase at 100 nM after 48 hrs by PI/RNase staining based FACS analysis (reference value: 16.50%); type: functional
[4] = system: MV4-11; assay: Induction of apoptosis in human MV4-11 cells assessed as dead cells after 48 hrs by annexin V/propidium iodide staining based FACS analysis; type: functional, cell-based
[5] = system: A549; assay: Antiproliferative activity against human A549 cells after 72 hrs by SRB assay; type: functional, cell-based; conditions: A549, 72 h
[6] = system: SW-620; assay: Antiproliferative activity against human SW620 cells after 72 hrs by SRB assay; type: functional, cell-based; conditions: SW-620, 72 h
[7] = Clearance in overnight fasted Sprague-Dawley rat plasma at 1 mg/kg, iv up to 24 hrs by LC-MS/MS analysis; type: ADME, organism-based
[8] = system: MV4-11; assay: Cell cycle arrest in human MV4-11 cells assessed as accumulation at G0/G1 phase after 48 hrs by PI/RNase staining based FACS analysis; type: functional
[9] = system: MV4-11; assay: Induction of apoptosis in human MV4-11 cells assessed as apoptotic cells after 48 hrs by annexin V/propidium iodide staining based FACS analysis; type: functional, cell-based
[10] = system: NCI-H209; assay: Antiproliferative activity against human H209 cells after 72 hrs by MTT assay; type: functional, cell-based; conditions: NCI-H209, 72 h
[11] = system: MV4-11; assay: Cell cycle arrest in human MV4-11 cells assessed as cell debris level at 100 nM after 48 hrs by PI/RNase staining based FACS analysis; type: functional
[12] = target: Receptor-type tyrosine-protein kinase FLT3 (Homo sapiens, UniProt P36888, D835V/ITD); assay: Binding affinity to human partial length FLT3 ITD/D835V mutant expressed in mammalian expression system after 1 hr
[13] = target: T1, Receptor-type tyrosine-protein kinase FLT3 (Homo sapiens, UniProt P36888); assay: Binding affinity to auto-inhibited human partial length wild type FLT3 (564 to 969 residues) expressed in mammalian expression system after 1 hr
T1 sequence (P36888 whole entry): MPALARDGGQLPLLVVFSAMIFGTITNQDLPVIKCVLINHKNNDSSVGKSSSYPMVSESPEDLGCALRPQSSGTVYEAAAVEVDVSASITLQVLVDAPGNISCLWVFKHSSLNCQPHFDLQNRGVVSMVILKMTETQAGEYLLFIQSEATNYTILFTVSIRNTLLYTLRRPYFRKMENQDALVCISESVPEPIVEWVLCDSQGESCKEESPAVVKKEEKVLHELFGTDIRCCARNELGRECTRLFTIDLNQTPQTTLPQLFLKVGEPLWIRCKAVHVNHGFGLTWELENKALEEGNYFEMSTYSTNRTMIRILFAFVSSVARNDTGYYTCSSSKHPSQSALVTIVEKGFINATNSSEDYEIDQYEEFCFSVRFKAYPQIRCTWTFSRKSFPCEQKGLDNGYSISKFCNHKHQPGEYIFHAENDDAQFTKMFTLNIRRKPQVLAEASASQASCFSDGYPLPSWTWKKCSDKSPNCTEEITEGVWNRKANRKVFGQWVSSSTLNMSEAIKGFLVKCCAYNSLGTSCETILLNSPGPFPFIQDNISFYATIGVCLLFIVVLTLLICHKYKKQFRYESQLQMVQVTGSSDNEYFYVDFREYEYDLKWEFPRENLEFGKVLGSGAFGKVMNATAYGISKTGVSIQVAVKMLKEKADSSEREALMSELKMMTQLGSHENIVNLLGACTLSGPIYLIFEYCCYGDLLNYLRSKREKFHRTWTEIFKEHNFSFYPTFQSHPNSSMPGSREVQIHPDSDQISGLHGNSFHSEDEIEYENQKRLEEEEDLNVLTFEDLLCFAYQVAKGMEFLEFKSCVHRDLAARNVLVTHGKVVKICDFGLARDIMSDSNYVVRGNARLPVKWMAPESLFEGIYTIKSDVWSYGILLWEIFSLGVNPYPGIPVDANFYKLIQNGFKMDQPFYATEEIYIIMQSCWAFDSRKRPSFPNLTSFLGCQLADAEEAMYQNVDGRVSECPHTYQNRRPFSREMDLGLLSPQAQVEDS

[14] = target: Interleukin-1 receptor-associated kinase 1 (Homo sapiens) (UniProt P51617); assay: Inhibition of human IRAK1 expressed in mammalian system assessed as remaining enzyme activity at 1 uM relative to untreated control
Interleukin-1 receptor-associated kinase 1 (Homo sapiens), sequence (P51617 whole entry, looked up): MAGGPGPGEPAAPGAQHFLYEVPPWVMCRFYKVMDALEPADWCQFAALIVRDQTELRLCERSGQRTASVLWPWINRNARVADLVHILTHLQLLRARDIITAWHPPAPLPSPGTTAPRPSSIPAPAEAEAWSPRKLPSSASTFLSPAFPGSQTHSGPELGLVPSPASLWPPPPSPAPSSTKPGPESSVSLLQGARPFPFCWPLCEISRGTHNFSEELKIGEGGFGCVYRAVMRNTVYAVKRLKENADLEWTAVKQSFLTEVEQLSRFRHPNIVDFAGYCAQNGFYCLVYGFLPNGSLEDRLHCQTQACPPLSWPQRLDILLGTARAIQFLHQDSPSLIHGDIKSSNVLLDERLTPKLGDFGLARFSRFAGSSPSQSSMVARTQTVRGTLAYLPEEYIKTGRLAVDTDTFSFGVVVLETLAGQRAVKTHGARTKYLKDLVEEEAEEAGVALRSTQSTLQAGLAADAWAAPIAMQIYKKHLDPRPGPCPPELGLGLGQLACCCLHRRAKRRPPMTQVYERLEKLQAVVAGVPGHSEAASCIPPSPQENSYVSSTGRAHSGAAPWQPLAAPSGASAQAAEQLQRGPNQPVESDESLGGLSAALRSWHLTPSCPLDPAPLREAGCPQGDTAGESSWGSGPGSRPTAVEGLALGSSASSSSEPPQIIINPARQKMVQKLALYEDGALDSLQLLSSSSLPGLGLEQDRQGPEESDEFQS

[15] = system: MV4-11; assay: Cell cycle arrest in human MV4-11 cells assessed as accumulation at subG1 phase at 100 nM after 48 hrs by PI/RNase staining based FACS analysis (reference value: 0%); type: functional
[16] = system: MV4-11; assay: Antiproliferative activity against human MV4-11 cells after 72 hrs by MTT assay; type: functional, cell-based; conditions: MV4-11, 72 h
[17] = system: MV4-11; assay: Induction of apoptosis in human MV4-11 cells assessed as late apoptotic cells at 10 nM after 48 hrs by annexin V/propidium iodide staining based FACS analysis (reference value: 3.01%); type: functional
[18] = target: Tyrosine-protein kinase JAK1 (Homo sapiens) (UniProt P23458); assay: Inhibition of human JAK1 expressed in mammalian or bacterial system assessed as remaining enzyme activity at 1 uM relative to untreated control
Tyrosine-protein kinase JAK1 (Homo sapiens), sequence (P23458 whole entry): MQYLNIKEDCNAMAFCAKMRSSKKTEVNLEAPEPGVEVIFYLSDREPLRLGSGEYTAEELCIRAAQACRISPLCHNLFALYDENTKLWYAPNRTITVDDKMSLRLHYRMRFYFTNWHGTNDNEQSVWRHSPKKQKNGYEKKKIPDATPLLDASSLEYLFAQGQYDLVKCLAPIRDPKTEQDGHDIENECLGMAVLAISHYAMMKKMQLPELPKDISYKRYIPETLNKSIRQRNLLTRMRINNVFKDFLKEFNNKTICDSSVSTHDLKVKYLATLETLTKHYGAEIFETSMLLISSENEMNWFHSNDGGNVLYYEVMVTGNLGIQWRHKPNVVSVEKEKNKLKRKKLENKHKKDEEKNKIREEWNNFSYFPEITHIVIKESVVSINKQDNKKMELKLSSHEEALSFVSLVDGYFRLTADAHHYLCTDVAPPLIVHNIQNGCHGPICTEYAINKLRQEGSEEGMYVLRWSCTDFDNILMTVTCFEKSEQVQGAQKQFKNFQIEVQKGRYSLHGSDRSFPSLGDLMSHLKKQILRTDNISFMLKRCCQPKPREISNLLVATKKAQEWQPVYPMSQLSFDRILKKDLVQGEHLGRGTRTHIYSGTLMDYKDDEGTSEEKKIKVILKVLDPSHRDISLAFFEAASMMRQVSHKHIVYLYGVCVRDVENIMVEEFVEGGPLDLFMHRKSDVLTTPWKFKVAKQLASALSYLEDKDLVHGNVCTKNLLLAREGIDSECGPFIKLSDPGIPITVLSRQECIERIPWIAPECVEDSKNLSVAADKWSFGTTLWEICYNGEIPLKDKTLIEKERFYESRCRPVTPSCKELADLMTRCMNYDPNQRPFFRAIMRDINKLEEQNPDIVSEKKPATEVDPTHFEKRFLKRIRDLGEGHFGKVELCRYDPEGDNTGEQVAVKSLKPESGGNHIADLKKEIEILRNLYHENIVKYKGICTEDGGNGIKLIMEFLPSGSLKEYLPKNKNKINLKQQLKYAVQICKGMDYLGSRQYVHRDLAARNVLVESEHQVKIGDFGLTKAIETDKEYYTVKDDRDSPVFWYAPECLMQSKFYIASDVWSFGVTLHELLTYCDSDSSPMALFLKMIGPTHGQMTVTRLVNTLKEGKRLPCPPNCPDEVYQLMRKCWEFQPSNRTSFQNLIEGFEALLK

[19] = system: Receptor-type tyrosine-protein kinase FLT3 (Homo sapiens), P36888 [D835V]; assay: Inhibition of human FLT3 D835V mutant expressed in mammalian system assessed as remaining enzyme activity at 1 uM relative to untreated control
[20] = system: MV4-11; assay: Induction of apoptosis in human MV4-11 cells assessed as viable cells at 100 nM after 48 hrs by annexin V/propidium iodide staining based FACS analysis (reference value: 90.60%); type: functional; conditions: MV4-11, 48 h, read-out: Activity
[21] = system: MV4-11; assay: Cell cycle arrest in human MV4-11 cells assessed as accumulation at G0/G1 phase at 10 nM after 48 hrs by PI/RNase staining based FACS analysis (reference value: 69.55%); type: functional
[22] = system: MV4-11; assay: Antitumor activity against human MV4-11 cells xenografted in nude BALB/c mouse assessed as tumor growth inhibition at 25 mg/kg, po qd for 14 days measured every 2 days; type: functional; conditions: MV4-11, po, read-out: TGI
[23] = system: MV4-11; assay: Induction of apoptosis in human MV4-11 cells assessed as late apoptotic cells at 1 nM after 48 hrs by annexin V/propidium iodide staining based FACS analysis (reference value: 3.01%); type: functional
[24] = target: Platelet-derived growth factor receptor beta (Homo sapiens) (UniProt P09619); assay: Inhibition of human PDGFRB expressed in bacterial system assessed as remaining enzyme activity at 1 uM relative to untreated control
Platelet-derived growth factor receptor beta (Homo sapiens), sequence (P09619 whole entry): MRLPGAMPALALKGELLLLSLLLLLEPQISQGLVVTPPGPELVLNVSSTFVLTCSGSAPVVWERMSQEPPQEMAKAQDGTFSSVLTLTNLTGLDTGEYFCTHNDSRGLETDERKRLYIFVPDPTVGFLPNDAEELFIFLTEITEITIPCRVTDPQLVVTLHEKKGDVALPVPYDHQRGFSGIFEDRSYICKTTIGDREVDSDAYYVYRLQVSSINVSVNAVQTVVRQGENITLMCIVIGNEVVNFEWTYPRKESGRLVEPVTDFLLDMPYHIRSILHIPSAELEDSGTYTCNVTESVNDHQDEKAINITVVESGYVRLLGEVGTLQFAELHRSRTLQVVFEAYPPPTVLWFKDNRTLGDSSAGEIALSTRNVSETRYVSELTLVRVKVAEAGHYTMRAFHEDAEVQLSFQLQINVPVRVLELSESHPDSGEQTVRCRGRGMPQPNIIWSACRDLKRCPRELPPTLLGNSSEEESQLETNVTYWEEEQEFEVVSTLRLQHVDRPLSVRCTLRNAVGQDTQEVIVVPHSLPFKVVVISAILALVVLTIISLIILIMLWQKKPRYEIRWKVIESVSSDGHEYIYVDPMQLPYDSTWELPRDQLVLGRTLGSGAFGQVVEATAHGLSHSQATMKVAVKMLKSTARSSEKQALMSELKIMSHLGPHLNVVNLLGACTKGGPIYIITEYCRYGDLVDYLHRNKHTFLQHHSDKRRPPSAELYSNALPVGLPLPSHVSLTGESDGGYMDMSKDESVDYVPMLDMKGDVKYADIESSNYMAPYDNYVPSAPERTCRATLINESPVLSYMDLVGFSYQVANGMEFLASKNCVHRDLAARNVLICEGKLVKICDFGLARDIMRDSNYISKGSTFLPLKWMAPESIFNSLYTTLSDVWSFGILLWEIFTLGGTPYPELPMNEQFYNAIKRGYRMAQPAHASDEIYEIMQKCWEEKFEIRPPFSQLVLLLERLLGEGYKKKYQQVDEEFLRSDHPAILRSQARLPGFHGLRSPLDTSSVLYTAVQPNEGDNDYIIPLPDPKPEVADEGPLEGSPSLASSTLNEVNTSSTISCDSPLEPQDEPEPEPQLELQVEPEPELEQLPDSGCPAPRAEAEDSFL

[25] = system: MV4-11; assay: Induction of apoptosis in human MV4-11 cells assessed as early apoptotic cells at 10000 nM after 48 hrs by annexin V/propidium iodide staining based FACS analysis (reference value: 6.31%); type: functional
[26] = system: MV4-11; assay: animal or person; conditions: Mus musculus, MV4-11, po, read-out: TGI
Description: Antitumor activity against human MV4-11 cells xenografted in nude BALB/c mouse assessed as tumor growth inhibition at 10 mg/kg, po qd for 14 days measured every 2 days

## Cc1cc(Nc2ncc3ncc(=O)n(-c4ccc(N)cc4)c3n2)ccc1N1CCN(C)CC1
[1]
  bioavailability: 26.4%
[2]
  Tmax: 2.17 h
[3]
  Activity: 2.06%
[4]
  Activity: Dose-dependent effect
[5]
  IC50: > 10 µM
[6]
  IC50: 2.53 µM
[7]
  clearance: 142 mL/min/kg
[8]
  Activity: Dose-dependent effect
[9]
  Activity: Dose-dependent effect
[10]
  IC50: > 10 µM
[11]
  Activity: 12.02%
[12]
  Kd: 0.00079 µM
[13]
  Kd: 0.079 µM
[14]
  Activity: < 1%
[15]
  Activity: 12%
[16]
  IC50: 0.051 µM
[17]
  Activity: 3.34%
[18]
  Activity: < 1%
[19]
  Activity: < 1%
[20]
  viability at 0.1 µM: 60.3%
[21]
  Activity: 70.2%
[22]
  inhibition in vivo at 25 mg/kg: 87%
[23]
  Activity: 3.49%
[24]
  Activity: < 1%
[25]
  Activity: 68.6%
[26]
  inhibition in vivo at 10 mg/kg: 28%

— ChEMBL document CHEMBL4477208, “Discovery and Rational Design of Pteridin-7(8H)-one-Based Inhibitors Targeting FMS-like Tyrosine Kinase 3 (FLT3) and Its Mutants” (J Med Chem, 2016)
